{"source": "paper PMC10803289", "about": "“Transport and inhibition mechanism of the human SGLT2–MAP17 glucose transporter” (Nature Structural & Molecular Biology, 2023)", "molecular_target": "T1, wild-type hSGLT2 (membrane fraction of hSGLT2 and MAP17 expressing cells) (Homo sapiens, UniProt P31639)", "T1 construct": "expressed in transfected cells; host or cells: Expi293 cells, crude membrane fraction", "T1 sequence (P31639 1-672)": "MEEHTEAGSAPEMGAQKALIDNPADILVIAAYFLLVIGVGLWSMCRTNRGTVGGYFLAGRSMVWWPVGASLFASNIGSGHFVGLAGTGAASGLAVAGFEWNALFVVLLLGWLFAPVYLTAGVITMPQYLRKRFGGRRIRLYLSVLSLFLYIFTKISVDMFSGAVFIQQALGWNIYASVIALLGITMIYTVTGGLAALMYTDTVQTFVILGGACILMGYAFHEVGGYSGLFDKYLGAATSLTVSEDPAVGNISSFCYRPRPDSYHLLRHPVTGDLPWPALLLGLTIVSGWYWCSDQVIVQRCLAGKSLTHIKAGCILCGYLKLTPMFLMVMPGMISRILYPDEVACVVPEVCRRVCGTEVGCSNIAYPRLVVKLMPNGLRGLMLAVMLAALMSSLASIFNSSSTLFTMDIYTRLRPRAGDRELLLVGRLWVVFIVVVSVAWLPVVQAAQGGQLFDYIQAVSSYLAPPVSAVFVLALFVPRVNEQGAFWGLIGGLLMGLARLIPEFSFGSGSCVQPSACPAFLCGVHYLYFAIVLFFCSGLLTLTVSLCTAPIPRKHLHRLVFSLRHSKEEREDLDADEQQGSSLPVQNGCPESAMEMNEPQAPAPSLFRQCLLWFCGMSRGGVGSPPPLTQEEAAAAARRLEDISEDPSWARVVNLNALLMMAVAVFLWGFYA", "T1 sequence (Q13113 1-114 partner)": "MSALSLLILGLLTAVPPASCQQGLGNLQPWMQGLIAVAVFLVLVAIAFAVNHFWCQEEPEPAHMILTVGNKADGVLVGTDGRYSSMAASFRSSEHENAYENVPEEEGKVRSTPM", "assay": "SGLT2 inhibitor-binding assay via affinity selection–mass spectrometry, crude membrane, WT", "method": "To examine the inhibition of binding to the crude membrane, mammalian Expi293 cells were co-transfected with the hMAP17 and hSGLT2 plasmids, as described. The cells were collected and disrupted by sonication in a hypotonic buffer (50 mM HEPES–NaOH (pH 7.5), 10 mM KCl and protease inhibitor cocktail) or Na^+-free hypotonic buffer (50 mM Tris–HCl (pH 7.5), 10 mM KCl and protease inhibitor cocktail). The cell debris were removed by centrifugation (2,000g, 5 min, 4 °C). The membrane fraction was collected by ultracentrifugation (112,000g, 30 min, 4 °C) and stored at −80 °C before use. The crude membrane (250 μg per sample) was incubated with SGLT2 inhibitor in an assay buffer (100 mM NaCl and 10 mM HEPES/Tris, pH 7.4) or Na^+-free assay buffer (100 mM choline chloride and 10 mM HEPES/Tris, pH 7.4) at room temperature for 2 h. Reactions were terminated by filtration through a GF/C filter plate (Corning) presoaked in assay buffer containing 0.1% bovine serum albumin. The sample in the filter plate was washed three times with the assay buffer and eluted with acetonitrile: water (80:20, v/v). The extract solution from the filter plate was diluted with water containing candesartan as an internal standard, and the SGLT2 inhibitor concentration was quantified via LC–MS/MS.\nNonspecific binding was measured using the crude membrane of nontransfected Expi293 cells. Specific binding was calculated by subtracting nonspecific binding from the binding of hSGLT2-expressing cells. Specific binding was normalized to hSGLT2 protein expression levels, measured via FSEC. The equilibrium dissociation constant (Kd) and maximum number of binding sites (Bmax) were calculated via nonlinear regression in GraphPad Prism 8.4.3. The specific binding of the hSGLT2 mutants was normalized to the Bmax of WT hSGLT2.\nThe concentrations of the extract solution from the filter plate and of the cell lysate were quantified using a tandem mass spectrometry QTRAP6500 System (SCIEX) coupled with an ACQUITY UPLC system (Waters) using the internal standard method. Mobile phases A and B used 10 mM of ammonium bicarbonate and acetonitrile, respectively.", "note": "“And” between values parts separate entries of the source, which are not always exact repeats. Equal entries are not always repeated."}
{"smiles": "Cc1ccc([C@@H]2O[C@H](CO)[C@@H](O)[C@H](O)[C@H]2O)cc1Cc1ccc(-c2ccc(F)cc2)s1", "note": "[Canagliflozin]", "values": [{"measurement": "Canagliflozin binding (% of WT)", "setting": "30 nM canagliflozin, WT, replicates", "value": "95.0024 % of WT and 98.5721 % of WT and 106.426 % of WT"}, {"measurement": "Canagliflozin binding (% of hSGLT2)", "setting": "30 nM canagliflozin, hSGLT2 membrane", "value": "85.124 % of hSGLT2 and 96.4187 % of hSGLT2 and 118.457 % of hSGLT2"}, {"measurement": "Bmax", "setting": "Na(+), mean ± SEM n=3", "value": "1.91 ± 0.16", "unit": "pmol/mg-protein"}, {"measurement": "Kd", "setting": "Na(+), mean ± SEM n=3", "value": "94 ± 21.8", "unit": "nM"}, {"measurement": "Bmax", "setting": "Na(-), mean ± SEM n=3", "value": "1.33 ± 0.12", "unit": "pmol/mg-protein"}, {"measurement": "Kd", "setting": "Na(-), mean ± SEM n=3", "value": "109 ± 25.4", "unit": "nM"}, {"measurement": "Canagliflozin binding", "setting": "Sodium 0 mM, replicates", "value": "0.5239 pmol/mg-protein and 0.5745 pmol/mg-protein and 0.6364 pmol/mg-protein"}, {"measurement": "Canagliflozin binding", "setting": "Sodium 1 mM, replicates", "value": "0.4659 pmol/mg-protein and 0.5424 pmol/mg-protein and 0.6685 pmol/mg-protein"}, {"measurement": "Canagliflozin binding", "setting": "Sodium 10 mM, replicates", "value": "0.8906 pmol/mg-protein and 0.8030 pmol/mg-protein and 0.9338 pmol/mg-protein"}, {"measurement": "Canagliflozin binding", "setting": "Sodium 100 mM, replicates", "value": "0.9992 pmol/mg-protein and 1.5850 pmol/mg-protein and 1.3270 pmol/mg-protein"}, {"measurement": "Bmax in the absence versus the presence of Na+ (in words)", "setting": "absence vs presence of Na+", "value": "partially lower"}, {"measurement": "Kd", "setting": "in the presence of sodium, rounded value quoted by the referee in peer review file", "value": "~100", "unit": "nM"}]}
